Test results from patent publication US10004701B2, “Methods and compositions for treating infection” (UNIVERSITY OF ROCHESTER, priority 2012, dated 2018).
Structures can show the parent of a compound that is named as a salt. Where two headings read alike, the source gives them in different places.

Key:
Assay in all cases: AK assay 384-well format, Prestwick library screening
E. coli = type: cell-based, Escherichia coli; conditions: 50 μM final drug concentration; for fold induction at 50 µM: Escherichia coli, 3 h
K. pneumoniae = type: cell-based, Klebsiella pneumoniae; conditions: 50 μM final drug concentration; for fold induction at 50 µM: Klebsiella pneumoniae, 3 h
[1] = tested on: S. aureus strain USA300-0114; type: cell-based, Staphylococcus aureus; conditions: 50 μM final drug concentration; for fold induction at 50 µM: Staphylococcus aureus, USA300, 3 h
[2] = tested on: A. baumannii strain 98-37-09; type: cell-based, Acinetobacter baumannii; conditions: 50 μM final drug concentration; for fold induction at 50 µM: Acinetobacter baumannii, 983709, 3 h
E. cloacae = type: cell-based, Enterobacter cloacae; conditions: 50 μM final drug concentration; for fold induction at 50 µM: Enterobacter cloacae, 3 h
P. aeruginosa = type: cell-based, Pseudomonas aeruginosa; conditions: 50 μM final drug concentration; for fold induction at 50 µM: Pseudomonas aeruginosa, 3 h
E. faecium = type: cell-based, Enterococcus faecium; conditions: 50 μM final drug concentration; for fold induction at 50 µM: Enterococcus faecium, 3 h
[3] = planktonic, cutoff for positive 3-fold increase
[4] = cutoff for positive-scoring molecules 3-fold increase
[5] = cutoff for positive-scoring molecules 3-fold increase, read-out: AK-based Prestwick Library Screening Results, E. coli (fold increase in extracellular AK activity)
[6] = cutoff for positive-scoring molecules 3-fold increase, read-out: AK-based Prestwick Library Screening Results, K. pneumoniae (fold increase in extracellular AK activity)
[7] = cutoff for positive-scoring molecules 3-fold increase, read-out: AK-based Prestwick Library Screening Results, S. aureus (fold increase in extracellular AK activity)
[8] = cutoff for positive-scoring molecules 3-fold increase, read-out: AK-based Prestwick Library Screening Results, A. baumannii (fold increase in extracellular AK activity)
[9] = cutoff for positive-scoring molecules 3-fold increase, read-out: AK-based Prestwick Library Screening Results, E. cloacae (fold increase in extracellular AK activity)
[10] = cutoff for positive-scoring molecules 3-fold increase, read-out: AK-based Prestwick Library Screening Results, P. aeruginosa (fold increase in extracellular AK activity)
[11] = cutoff for positive-scoring molecules 3-fold increase, read-out: AK-based Prestwick Library Screening Results, E. faecium (fold increase in extracellular AK activity)
[12] = planktonic E. coli, 384-well, cutoff for positive-scoring molecules 3-fold increase, read-out: AK-based Prestwick Library Screening Results: E. coli (increase in extracellular AK activity)
[13] = planktonic K. pneumoniae, 384-well, cutoff for positive-scoring molecules 3-fold increase, read-out: AK-based Prestwick Library Screening Results: K. pneumoniae (increase in extracellular AK activity)
[14] = planktonic S. aureus, 384-well, cutoff for positive-scoring molecules 3-fold increase, read-out: AK-based Prestwick Library Screening Results: S. aureus (increase in extracellular AK activity)
[15] = planktonic A. baumannii, 384-well, cutoff for positive-scoring molecules 3-fold increase, read-out: AK-based Prestwick Library Screening Results: A. baumannii (increase in extracellular AK activity)
[16] = planktonic E. cloacae, 384-well, cutoff for positive-scoring molecules 3-fold increase, read-out: AK-based Prestwick Library Screening Results: E. cloacae (increase in extracellular AK activity)
[17] = planktonic P. aeruginosa, 384-well, cutoff for positive-scoring molecules 3-fold increase, read-out: AK-based Prestwick Library Screening Results: P. aeruginosa (increase in extracellular AK activity)
[18] = planktonic E. faecium, 384-well, cutoff for positive-scoring molecules 3-fold increase, read-out: AK-based Prestwick Library Screening Results: E. faecium (increase in extracellular AK activity)
[19] = 384-well format, cutoff for positive-scoring molecules 3-fold increase, read-out: AK-based Prestwick Library Screening Results, E. coli (increase in extracellular AK activity)
[20] = 384-well format, cutoff for positive-scoring molecules 3-fold increase, read-out: AK-based Prestwick Library Screening Results, K. pneumoniae (increase in extracellular AK activity)
[21] = 384-well format, cutoff for positive-scoring molecules 3-fold increase, read-out: AK-based Prestwick Library Screening Results, S. aureus (increase in extracellular AK activity)
[22] = 384-well format, cutoff for positive-scoring molecules 3-fold increase, read-out: AK-based Prestwick Library Screening Results, A. baumannii (increase in extracellular AK activity)
[23] = 384-well format, cutoff for positive-scoring molecules 3-fold increase, read-out: AK-based Prestwick Library Screening Results, E. cloacae (increase in extracellular AK activity)
[24] = 384-well format, cutoff for positive-scoring molecules 3-fold increase, read-out: AK-based Prestwick Library Screening Results, P. aeruginosa (increase in extracellular AK activity)
[25] = 384-well format, cutoff for positive-scoring molecules 3-fold increase, read-out: AK-based Prestwick Library Screening Results, E. faecium (increase in extracellular AK activity)

N[C@H]1CONC1=O [(S)-(−)-Cycloserine]
AK-based Prestwick library screening result, E. coli (fold increase in extracellular AK activity) (E. coli; planktonic E. coli, positive cutoff 3-fold increase): 1.3
AK-based Prestwick library screening result, K. pneumoniae (fold increase in extracellular AK activity) (K. pneumoniae; planktonic K. pneumoniae, positive cutoff 3-fold increase): 1.0
AK-based Prestwick library screening result, S. aureus (fold increase in extracellular AK activity) ([1]; planktonic S. aureus, positive cutoff 3-fold increase): 1.1
AK-based Prestwick library screening result, A. baumannii (fold increase in extracellular AK activity) ([2]; planktonic A. baumannii, positive cutoff 3-fold increase): 1.1
AK-based Prestwick library screening result, E. cloacae (fold increase in extracellular AK activity) (E. cloacae; planktonic E. cloacae, positive cutoff 3-fold increase): 1.6
AK-based Prestwick library screening result, P. aeruginosa (fold increase in extracellular AK activity) (P. aeruginosa; planktonic P. aeruginosa, positive cutoff 3-fold increase): 1.1
AK-based Prestwick library screening result, E. faecium (fold increase in extracellular AK activity) (E. faecium; planktonic E. faecium, positive cutoff 3-fold increase): 1.1

COc1ccc2c(c1OC)CN1CCc3cc4c(cc3C1C2)OCO4 (centres unmarked) [(d,l)-Tetrahydroberberine]
AK-based Prestwick Library Screening Results, E. coli (fold increase in extracellular AK activity) (E. coli; planktonic, […]): 0.8
AK-based Prestwick Library Screening Results, K. pneumoniae (fold increase in extracellular AK activity) (K. pneumoniae; planktonic, […]): 0.7
AK-based Prestwick Library Screening Results, S. aureus (fold increase in extracellular AK activity) ([1]; planktonic, […]): 0.7
AK-based Prestwick Library Screening Results, A. baumannii (fold increase in extracellular AK activity) ([2]; planktonic, […]): 0.9
AK-based Prestwick Library Screening Results, E. cloacae (fold increase in extracellular AK activity) (E. cloacae; planktonic, […]): 1.3
AK-based Prestwick Library Screening Results, P. aeruginosa (fold increase in extracellular AK activity) (P. aeruginosa; planktonic, […]): 0.8
AK-based Prestwick Library Screening Results, E. faecium (fold increase in extracellular AK activity) (E. faecium; planktonic, […]): 0.9

C=C[C@H]1CN2CC[C@H]1C[C@H]2[C@H](O)c1ccnc2ccccc12 [(−)-Cinchonidine]
AK-based Prestwick Library Screening Results, E. coli (fold increase in extracellular AK activity) (E. coli; [3]): 1.3
AK-based Prestwick Library Screening Results, K. pneumoniae (fold increase in extracellular AK activity) (K. pneumoniae; [3]): 0.8
AK-based Prestwick Library Screening Results, S. aureus (fold increase in extracellular AK activity) [1, 3]: 0.9
AK-based Prestwick Library Screening Results, A. baumannii (fold increase in extracellular AK activity) [2, 3]: 1.1
AK-based Prestwick Library Screening Results, E. cloacae (fold increase in extracellular AK activity) (E. cloacae; [3]): 1.6
AK-based Prestwick Library Screening Results, P. aeruginosa (fold increase in extracellular AK activity) (P. aeruginosa; [3]): 1.1
AK-based Prestwick Library Screening Results, E. faecium (fold increase in extracellular AK activity) (E. faecium; [3]): 1.0

CC(C)(C)NC[C@H](O)COc1cccc2c1CCCC2=O.Cl [(−)-Levobunolol hydrochloride]
AK-based Prestwick Library Screening Results, E. coli (fold increase in extracellular AK activity) (E. coli; [4]): 1.3
AK-based Prestwick Library Screening Results, K. pneumoniae (fold increase in extracellular AK activity) (K. pneumoniae; [4]): 1.0
AK-based Prestwick Library Screening Results, S. aureus (fold increase in extracellular AK activity) [1, 4]: 1.0
AK-based Prestwick Library Screening Results, A. baumannii (fold increase in extracellular AK activity) [2, 4]: 1.0
AK-based Prestwick Library Screening Results, E. cloacae (fold increase in extracellular AK activity) (E. cloacae; [4]): 1.9
AK-based Prestwick Library Screening Results, P. aeruginosa (fold increase in extracellular AK activity) (P. aeruginosa; [4]): 1.2
AK-based Prestwick Library Screening Results, E. faecium (fold increase in extracellular AK activity) (E. faecium; [4]): 1.0

COc1ccc(-c2cc(=O)c3c(O)cc(O)cc3o2)cc1 [Acacetin]
fold induction at 50 µM (E. coli; [5]): 0.7
fold induction at 50 µM (K. pneumoniae; [6]): 0.6
fold induction at 50 µM [1, 7]: 0.7
fold induction at 50 µM [2, 8]: 0.3
fold induction at 50 µM (E. cloacae; [9]): 1.6
fold induction at 50 µM (P. aeruginosa; [10]): 0.6
fold induction at 50 µM (E. faecium; [11]): 0.5

CCCC(=O)Nc1ccc(OCC(O)CNC(C)C)c(C(C)=O)c1 (centres unmarked) [Acebutolol hydrochloride]
fold induction at 50 µM (E. coli; [12]): 1.3
fold induction at 50 µM (K. pneumoniae; [13]): 0.9
fold induction at 50 µM [1, 14]: 1.1
fold induction at 50 µM [2, 15]: 1.3
fold induction at 50 µM (E. cloacae; [16]): 1.2
fold induction at 50 µM (P. aeruginosa; [17]): 1.1
fold induction at 50 µM (E. faecium; [18]): 1.1

O=C(O)COC(=O)Cc1ccccc1Nc1c(Cl)cccc1Cl [Aceclofenac]
fold induction at 50 µM (E. coli; [19]): 0.7
fold induction at 50 µM (K. pneumoniae; [20]): 0.6
fold induction at 50 µM [1, 21]: 0.7
fold induction at 50 µM [2, 22]: 0.7
fold induction at 50 µM (E. cloacae; [23]): 0.8
fold induction at 50 µM (P. aeruginosa; [24]): 0.8
fold induction at 50 µM (E. faecium; [25]): 1

COc1ccc2c(c1)c(CC(=O)OCC(=O)O)c(C)n2C(=O)c1ccc(Cl)cc1 [Acemetacin]
fold induction at 50 µM (E. coli; [12]): 1.2
fold induction at 50 µM (K. pneumoniae; [13]): 0.9
fold induction at 50 µM [1, 14]: 1.1
fold induction at 50 µM [2, 15]: 1.1
fold induction at 50 µM (E. cloacae; [16]): 1.3
fold induction at 50 µM (P. aeruginosa; [17]): 1.1
fold induction at 50 µM (E. faecium; [18]): 1

CC(=O)CC(c1ccc([N+](=O)[O-])cc1)c1c(O)c2ccccc2oc1=O (centres unmarked) [Acenocoumarol]
fold induction at 50 µM (E. coli; [19]): 0.9
fold induction at 50 µM (K. pneumoniae; [20]): 0.7
fold induction at 50 µM [1, 21]: 0.8
fold induction at 50 µM [2, 22]: 0.8
fold induction at 50 µM (E. cloacae; [23]): 0.9
fold induction at 50 µM (P. aeruginosa; [24]): 0.9
fold induction at 50 µM (E. faecium; [25]): 1

CC(=O)Nc1ccc(O)cc1 [Acetaminophen]
fold induction at 50 µM (E. coli; [5]): 1.4
fold induction at 50 µM (K. pneumoniae; [6]): 1.2
fold induction at 50 µM [1, 7]: 1.6
fold induction at 50 µM [2, 8]: 1.5
fold induction at 50 µM (E. cloacae; [9]): 1.6
fold induction at 50 µM (P. aeruginosa; [10]): 1.1
fold induction at 50 µM (E. faecium; [11]): 1

CC(=O)Nc1nnc(S(N)(=O)=O)s1 [Acetazolamide]
fold induction at 50 µM (E. coli; [19]): 0.4
fold induction at 50 µM (K. pneumoniae; [20]): 0.4
fold induction at 50 µM [1, 21]: 0.4
fold induction at 50 µM [2, 22]: 0.4
fold induction at 50 µM (E. cloacae; [23]): 0.3
fold induction at 50 µM (P. aeruginosa; [24]): 0.3
fold induction at 50 µM (E. faecium; [25]): 0.9

CC(=O)c1ccc(S(=O)(=O)NC(=O)NC2CCCCC2)cc1 [Acetohexamide]
fold induction at 50 µM (E. coli; [12]): 1.2
fold induction at 50 µM (K. pneumoniae; [13]): 0.8
fold induction at 50 µM [1, 14]: 1.1
fold induction at 50 µM [2, 15]: 1.1
fold induction at 50 µM (E. cloacae; [16]): 1.7
fold induction at 50 µM (P. aeruginosa; [17]): 1.2
fold induction at 50 µM (E. faecium; [18]): 0.9

CC(=O)c1ccc2c(c1)N(CCCN(C)C)c1ccccc1S2.O=C(O)/C=C\C(=O)O [Acetopromazine maleate salt]
AK-based Prestwick Library Screening Results, E. coli (increase in extracellular AK activity) (E. coli; planktonic E. coli, cutoff for positive-scoring molecules 3-fold increase): 0.8
AK-based Prestwick Library Screening Results, K. pneumoniae (increase in extracellular AK activity) (K. pneumoniae; planktonic K. pneumoniae, cutoff for positive-scoring molecules 3-fold increase): 0.6
AK-based Prestwick Library Screening Results, S. aureus (increase in extracellular AK activity) ([1]; planktonic S. aureus, cutoff for positive-scoring molecules 3-fold increase): 0.8
AK-based Prestwick Library Screening Results, A. baumannii (increase in extracellular AK activity) ([2]; planktonic A. baumannii, cutoff for positive-scoring molecules 3-fold increase): 0.8
AK-based Prestwick Library Screening Results, E. cloacae (increase in extracellular AK activity) (E. cloacae; planktonic E. cloacae, cutoff for positive-scoring molecules 3-fold increase): 0.8
AK-based Prestwick Library Screening Results, P. aeruginosa (increase in extracellular AK activity) (P. aeruginosa; planktonic P. aeruginosa, cutoff for positive-scoring molecules 3-fold increase): 0.7
AK-based Prestwick Library Screening Results, E. faecium (increase in extracellular AK activity) (E. faecium; planktonic E. faecium, cutoff for positive-scoring molecules 3-fold increase): 1.0

CC(=O)Oc1ccccc1C(=O)Oc1ccccc1C(=O)O [Acetylsalicylsalicylic acid]
fold induction at 50 µM (E. coli; [19]): 0.6
fold induction at 50 µM (K. pneumoniae; [20]): 0.6
fold induction at 50 µM [1, 21]: 0.7
fold induction at 50 µM [2, 22]: 0.7
fold induction at 50 µM (E. cloacae; [23]): 0.8
fold induction at 50 µM (P. aeruginosa; [24]): 0.6
fold induction at 50 µM (E. faecium; [25]): 1
